Consider two molecules from PubChem BioAssay AID1963420 (Molecular Pharmacology Branch, DTP, NCI, 2024).

In general, IC50 refers to the concentration that inhibits the measured activity by half. As a reminder, the viability, T/C is the result in the treated group divided by that in the control group, in per cent.

This assay has as its system 494315-158-R-J1-PDC complex spheroid growth, percent test/control. Nature of the assay: Anticancer human tumor 494315-158-R-J1-PDC patient-derived soft tissue sarcoma cell line growth inhibition [Asc]. As to conditions: for viability, T/C: stronger effect = lower value. In short, it runs like this:
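Complex spheroids combining tumor cells with HUVEC endothelial cells and human MSCs, at 37 degrees C, 5% CO2; agents tested alone or combined, half-log dilutions from at or near clinical Cmax, or 10 microM if Cmax unknown.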

Molecules are shown by their SMILES. Several values for one entry are separate records, joined by “and”; a condition that tells them apart may be missing. Equal entries are not always repeated.
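Further: compound exposure lasted seven days after spheroids formed for three days.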

Regarding `O=C(c1ccc(F)c(F)c1Nc1ccc(I)cc1F)N1CC(O)([C@@H]2CCCCN2)C1` + Cc1c(S(C)(=O)=O)c(-c2cc(F)cc(N3CCN(c4ccc(NS(=O)(=O)c5ccc(NC(CCN6CCC(C(=O)OCCCP(=O)(O)O)CC6)CSc6ccccc6)c(S(=O)(=O)C(F)(F)F)c5)cc4)CC3)c2)c(-c2ccc(Cl)cc2)n1C(C)C, the IC50 by setting is: (curve of first compound, second compound 0.1 µM) 543 nM; (curve of first compound, second compound 0.316 µM) 375 nM; (curve of first compound, second compound 1 µM) 258 nM; (curve of first compound, second compound 3.16 µM) 142 nM; (curve of first compound, second compound 10 µM) 245 nM. For the same molecule, the viability, T/C is 78.8% (second compound 0.1 µM, first compound 0.00316 µM); 78.8% (second compound 0.1 µM, first compound 0.01 µM); 87.4% (second compound 0.1 µM, first compound 0.0316 µM); 85.3% (second compound 0.1 µM, first compound 0.1 µM); 72.1% (second compound 0.1 µM, first compound 0.316 µM); 24.9% (second compound 0.1 µM, first compound 1 µM). Besides, the viability, T/C reads like this: (second compound 0.316 µM, first compound 0.00316 µM) 71.2%; (second compound 0.316 µM, first compound 0.01 µM) 78.9%; (second compound 0.316 µM, first compound 0.0316 µM) 70.6%; (second compound 0.316 µM, first compound 0.1 µM) 72%; (second compound 0.316 µM, first compound 0.316 µM) 55.8%; (second compound 0.316 µM, first compound 1 µM) 15.5%. Moreover, the viability, T/C by setting is: (second compound 1 µM, first compound 0.00316 µM) 60.4%; (second compound 1 µM, first compound 0.01 µM) 61.2%; (second compound 1 µM, first compound 0.0316 µM) 71.6%; (second compound 1 µM, first compound 0.1 µM) 72.5%; (second compound 1 µM, first compound 0.316 µM) 46.5%; (second compound 1 µM, first compound 1 µM) 12.2%. Also, the viability, T/C reads like this: (second compound 3.16 µM, first compound 0.00316 µM) 60.5%; (second compound 3.16 µM, first compound 0.01 µM) 53.6%; (second compound 3.16 µM, first compound 0.0316 µM) 59.5%; (second compound 3.16 µM, first compound 0.1 µM) 53.6%; (second compound 3.16 µM, first compound 0.316 µM) 40.7%; (second compound 3.16 µM, first compound 1 µM) 18.3%. Also, the viability, T/C was 68.2% (second compound 10 µM, first compound 0.00316 µM); 75.2% (second compound 10 µM, first compound 0.01 µM); 76.4% (second compound 10 µM, first compound 0.0316 µM); 79.9% (second compound 10 µM, first compound 0.1 µM); 43% (second compound 10 µM, first compound 0.316 µM); 13.7% (second compound 10 µM, first compound 1 µM).

`NC1CCC(NC2CC2c2ccccc2)CC1` (configuration not stated): the viability, T/C is 89% and 106% and 94% (compound 0.000316 µM); 76.7% and 90.3% and 92.3% (compound 0.001 µM); 75.3% and 86% and 84.9% (compound 0.00316 µM); 89% and 91.7% and 90.7% (compound 0.01 µM); 93.3% and 81.8% and 96.3% (compound 0.0316 µM); 88.3% and 94.6% and 95.1% (compound 0.1 µM). Besides, where the note is “curve of compound”, the IC50 was over 100 nM.
